Results: PMC11729425 (ACS Pharmacology & Translational Science, 2024)

Columns and labels:
Aged C57BL/6J mice [1] = assay: Oral glucose tolerance test (oGTT) in aged mice; assay type: in vivo, C57BL/6JRj mice; settings: 1 mg/kg in the food, week 17
Experimental: For OGTT, mice underwent an overnight fast, and on the morning of the experiment, they were administered a gavage consisting of a 20% glucose solution in water (10 mL [2 g]/kg body weight). Blood glucose levels were monitored from the tail vein using a glucometer prior to the gavage and at 15, 30, 45, 60, 90, 120, 150, and 180 min thereafter. Additionally, blood samples were collected at 0 min (pregavage), 15 and 30 min to assess fasting insulin levels and glucose-stimulated insulin secretion. oGTT was performed 17 weeks post experiment onset as indicated in Figure 2A.

[2] = test system: GMC101 and CL2120 amyloid beta expressing animals; assay: Amyloid beta aggregation in C. elegans (Western blot); assay type: in vivo, Caenorhabditis elegans
Experimental: Figure 5 ALT-007 increases lifespan, improves healthspan and reduces protein aggregation in C. elegans. (A) Median and maximal lifespan of […]. elegans animals treated with ALT-007 or vehicle (5 μM). N = 2 biological replicates with at least 170 animals per group. (B) Paralysis and movement analysis of amyloid beta (Ab)-expressing animals treated with ALT-007 or vehicle (1 μM) at day 1 of adulthood. N = 2 biological replicates with at least 50 animals per group. (C) Amyloid aggregation upon ALT-007 treatment and DMSO as a control in GMC101 and CL2120 amyloid beta expressing animals and their respective controls. N = 3 biological replicates with at least 100 animals per group. (D) Quantification of amyloid beta (Ab) levels upon ALT-007 treatment. The log-rank (Mantel-Cox) test was used to evaluate differences between survival curves as indicated in Supplementary Table 1. two-tailed t-test was performed for two-group analysis and one-way analysis of variance (ANOVA) for three-group analysis. Sample preparation: Synchronized animal populations were collected and washed in M9 buffer. […] Protein samples were analyzed by Tricine-SDS-polyacrylamide gel electrophoresis (SDS-PAGE) and transferred to nitrocellulose membrane. Proteins were detected using the following antibodies under the manufacturer's conditions: antiβ-actin (Sigma) and antiAmyloid-beta, 1-16 (6E10) (BioLegend).

[3] = test system: gastrocnemius muscles of aged mice; assay: RNAseq / gene set enrichment analysis of gastrocnemius muscle of aged mice; assay type: in vivo, C57BL/6JRj mice
Experimental: Figure 3 ALT-007 preserves muscle mass and rewires skeletal muscle gene expression during aging. (A) Lean mass measured by echoMRI after 11 weeks of treatment (ALT-007:1 mg/kg; DMSO: equivalent volume, for 20 weeks). (B) Gastrocnemius and (C) Tibialis anterior muscle weight after 20 weeks of treatment. N = 12 per group. (D) Total ceramide levels measured in the gastrocnemius muscle. (E) Volcano plot of mitochondrial, proteostasis, amino acids, biosynthetic processes, and neuronal-related gene sets highlighted. (F,G) Gene set enrichment analysis (GSEA) of (F) pathways involved in protein folding and degradation and (G) neurogenesis pathways in the skeletal muscle of mice treated with ALT-007 (N = 5 in DMSO and N = 4 in ALT-007-treated groups). Adjusted P values in GSEA comparison are indicated as follows: *adjusted P < 0.05; **adjusted P < 0.01; ***adjusted P < 0.001.
RNA seq analysis was performed as previously described. Changes in cell composition were assessed by gene set enrichment analysis (GSEA) with the clusterProfiler package (Yu G. et al., 2012) and the MsigDB v7.5.1 mouse cell type signature set, accessed through the msigdbr package was performed. Only the gene sets relevant to skeletal muscle and neuronal cell types were retained.
1.2. Supplementary Figure 2
Gene set enrichment analysis using the MsigDB mouse cell type signature sets. Only the gene sets relevant to skeletal muscle and neuronal cell types were retained.
GSEA was performed with the cluserProfiler package and gene sets were accessed through the MsigDBr package.
(1 picture or pasted object on this page, not shown here)

Aged C57BL/6J mice [4] = assay: Rotarod test; assay type: in vivo, C57BL/6JRj mice; settings: 1 mg/kg in the food, week 9
Experimental: The rotarod test assesses muscle strength, coordination, and endurance.[32] Mice were allowed to acclimate in the room for 30 min. […] Each mouse underwent three trials per day for three consecutive days. The latency at which the mouse either reached passive rotation or fell from the rotor was recorded. The results presented here focus on the latency of the best trial conducted on the second day.

Aged C57BL/6J mice [5] = assay: Grip strength; assay type: in vivo, C57BL/6JRj mice; settings: 1 mg/kg in the food, week 8, 4 limbs, normalized to BW
Experimental: Grip strength was evaluated using a grip strength test. Each mouse’s grip strength was measured using a pulldown grid assembly connected to a grip strength meter (Columbus Instruments). The mouse was pulled along a straight line parallel to the grip to determine peak force. The experiment was conducted three times, and the highest recorded value was considered for the analysis.

Aged C57BL/6J mice [6] = assay: CK level after 90 min downhill running; assay type: in vivo, C57BL/6JRj mice; settings: 1 mg/kg in the food, week 15, trend for improvement
Experimental: Figure 2 Chronic oral administration of ALT-007 enhances physical fitness in aged mice. (A) Schematic representation of the study time-line. Compounds were mixed in the food, ALT-007 at 1 mg/kg and DMSO at equivalent volume. At week 0: young mice were 2 months old, and the old mice were 18 months old. (B) Body weight curve over the course of the study (20 weeks). (C) Food intake curve throughout the study. (D–G) Organ mass at sacrifice (week 20), normalized to body weight. (H) Oral glucose tolerance test (oGTT) performed at week 17. (I) Best performance during hanging time normalized to BW at week 7. (J) Best performance during grip strength on the 4 limbs normalized to BW at week 8. (K) Rotarod’s best latency time at week 9. (L) VO2Max performed at week 11. (M) Uphill maximum running time performed at week 13. N = 9 per group. (N) Difference of CK level after—before 90 min downhill running performed at week 15. N = 6 in young, N = 8 in DMSO and N = 7 in ALT-007-treated groups. (O–Q) Measurement of kCAL/h at night (O) and at day (P) and movement recording in x, y, z (Q) during 24 h in CLAMS at week 19. N = 12 per group unless specified otherwise. Quantitative data are expressed as median with IQR. *P < 0.05, **P < 0.01, ***P < 0.001, ****P < 0.0001. ANOVA test was used for multiple comparison, and the Mann–Whitney U test when comparing 2 groups. All tests were 2 sided.

[7] = gastrocnemius of aged mice, ALT-007 vs DMSO

For COc1cc(C(=O)N2CC[C@H](NC(=O)c3ccccc3OC(F)(F)F)c3c2cnn3C(C)C)cnc1OC [ALT-007], the glucose tolerance test (Aged C57BL/6J mice [1]) was “no difference”, the amyloid beta aggregation ([2]; CL2120 strain (CL2122 as a control)) was “reduce aggregation” and the amyloid beta aggregates ([2]; GMC101 worms) was “reducing amyloid beta aggregates”. For the same compound, the “neurogenesis pathways in the muscle, GSEA” value [3, 7] was “remarkable upregulation of neurogenesis pathways”, the “proteostasis pathways (protein folding and degradation), GSEA” value [3, 7] was “enrichment of several proteostasis pathways” and the “ribosomal and translation pathways, GSEA” value [3, 7] was “significantly attenuated”. The “neuronal cells in the skeletal muscles (GSEA, MsigDB mouse cell type signature sets)” value ([3]; old treated vs old untreated mice) was “increases neuronal cells”, the “coordination measured by the rotarod test” value (Aged C57BL/6J mice [4]) was “improved” and the grip strength (Aged C57BL/6J mice [5]) was “increased compared to aged control mice”. For the same compound, the “creatine kinase in the blood after a downhill running test” value (Aged C57BL/6J mice [6]) was “nor did it reduce”.
